Where “and” joins values, the source holds several entries; their conditions need not be identical. Identical values can stand only once. Counter-ions that a name gives are not always drawn. Like-named read-outs stand apart in the source and are kept apart here.
Key:
Type in all cases: physicochemical
[1] = Tablet chemical stability: C17 epimer generation on storage at 40° C./75% RH; conditions: tablet dosage form, sealed bottle, 1 or 2 months, compared with mono-citrate salt
Protocol: FIG. 12 is a graph comparing the amount of the C17 epimer, a degradation product of Compound 1, over time for a tablet formulation containing Compound 1 hemi-citrate salt (Form I; left column in both “1 month” and “2 months”) or Compound 1 mono-citrate salt (Form A; right column in both “1 month” and “2 months”) in sealed bottles stored at 40° C./75% RH).

[2] = Tablet dissolution: percent release of Compound 1 from acidified tablet formulation
Protocol: FIG. 13 is a graph showing percent release of Compound 1 over time for an acidified tablet formulation containing Compound 1 hemi-citrate salt Form I. Tablets were used initially or maintained at 40° C./75% RH for 2 weeks, 1 month, or 2 months.
FIG. 14 is a graph showing percent release of Compound 1 over time for an acidified tablet formulation containing Compound 1 mono-citrate salt (Form A). Tablets were used initially or stored at 40° C./75% RH for 2 weeks, 1 month, or 2 months.

[3] = Gelation experiments in aqueous media; conditions: for concentration at which rapidly gelled: 0.1 N HCl media; for gelation in water or pH 7.4 buffer: 0.5-10 mg/mL
Protocol: To confirm these findings, controlled experiments were conducted where the free base, mono-citrate, and hemi-citrate salts of Compound 1 were dissolved in aqueous media at concentrations between 0.5 mg/mL and 10 mg/mL. The dissolution experiments were performed in either 0.1 N HCl, water, or pH 7.4 buffer as aqueous media.

[4] = True density by helium pycnometry
Protocol: The equipment used was a Micromeritics AccuPyc II 1340, and the test parameters are set forth below. Testing was performed in duplicate (assuming target <2% variability achieved).
The true density of the material was determined by Helium Pycnometry.
The equipment used in this study was a Micromeritics AccuPyc II 1340, and the test parameters are the same as described in Example 10. The testing was performed in duplicate (assuming target <2% variability achieved).

[5] = Compaction characterization by Heckel analysis (yield pressure, strain rate sensitivity, crushing strength); conditions: for Yield pressure Fast (300 mm/s) / Yield pressure Slow (0.1 mm/s): summary of runs (± spread); for Strain rate sensitivity: yield pressure at 300 mm/s compared to 0.1 mm/s
Protocol: The aim of the Heckel test is to compress the material under controlled conditions to derive the yield pressure of the bulk material. A known weight of material is compressed within a 10 mm diameter die with flat faced punches moving at a set speed. The force on the punch is accurately measured at frequent intervals whilst the displacement of the punches is used to calculate the volume of the powder. The yield pressure is calculated at slow and fast punch speeds to assess the time-dependent component to deformation of the material.
A known weight of pure drug is compacted to theoretical zero porosity using 10 mm diameter flat faced punches. The Compaction Simulator was used under the following conditions:
During compression the location of the punch tips are accurately determined, and the force measured by load cells producing a record of the primary compression parameters. Temperature and humidity were monitored at intervals during the test.
The data were analyzed by the Compaction Analysis software program to generate values for yield pressure (Py) using the Heckel equation:
where • D=the relative density of the compact; • P=Pressure applied; and • K=Gradient of the line in the linear region; [Reference: R. W. Heckel. Trans. Metall. Soc. AIME 221 (1961)1001-1008].
For some materials, the deformation characteristics change with rate of applied force. This can be estimated by calculating the Strain Rate Sensitivity. The yield pressure at high speed compression is compared to that at slow speed using the following equation: […]

[6] = Dynamic vapor sorption (DVS) hygroscopicity
Protocol: DVS was measured via a SMS (Surface Measurement System) DVS Intrinsic. Parameters for DVS data collection were as follows:
A second endotherm (having an onset at 121.5° C.) associated with melting of the dehydrated phase (ΔH: 15.20 J/g) was followed by a rapid decomposition as temperature continued to increase (FIG. 3). Because of the low onset of dehydration, the DVS was measured at both room temperature and at 40° C. to predict the stability of the crystalline phase at 40° C. […] A 1.5% weight loss was observed between 95% and 20% RH, and a 2.9% weight loss was observed between 20% and 0% RH, for a total loss of […] across the entire cycle. […] After measuring the hygroscopicity by DVS, an XRPD pattern was collected for comparison to the original material and found to correspond well to the pattern of the room temperature sample post-DVS temperature cycle (FIG. 6).

[7] = fast speed 300 mm/s, individual runs, 21.7° C./38.9% RH
[8] = slow speed 0.1 mm/s, individual runs, 21.6° C./37.1% RH

COC[C@@]1(O)CC[C@@]2(C)[C@@H](CC[C@@H]3[C@@H]2CC[C@]2(C)[C@@H](C(=O)Cn4ccnc4)CC[C@@H]32)C1 [Compound 1 hemi-citrate salt]
degradation product (C17-epimer) generated [1]: less degradation product
susceptibility to dissolution slow-down of the tablet ([2]; compared with Compound 1 mono-citrate salt): less susceptible
release of Compound 1 from an acidified formulation over time ([2]; initial and tablet stored in open dish at 40° C./75% RH for 2 weeks, 1 month, 2 months, compared with mono-citrate salt): greater
gelation in aqueous media ([3]; 0.1 N HCl, water, or pH 7.4 buffer, concentrations up to 10 mg/mL): did not gel

COC[C@@]1(O)CC[C@@]2(C)[C@@H](CC[C@@H]3[C@@H]2CC[C@]2(C)[C@@H](C(=O)Cn4ccnc4)CC[C@@H]32)C1.O=C(O)CC(O)(CC(=O)O)C(=O)O [Compound 1 mono-citrate salt Form A]
true density mean [4]: 1.2666 g/mL
Compact observations [5, 7]: Laminated
Compact strength [5, 7]: 9.75 Kiloponds and 12.38 Kiloponds and 5.09 Kiloponds
Ejection Force [5, 7]: 0.740 kN and 0.649 kN and 0.719 kN
Peak Force of Upper punch [5, 7]: 14.137 kN and 14.545 kN and 14.488 kN
Yield Pressure [5, 7]: 105.169 MPa and 111.204 MPa and 110.483 MPa
Compact observations [5, 8]: Ok
Compact strength [5, 8]: 15.99 Kiloponds and 17.94 Kiloponds and 15.97 Kiloponds and 16.04 Kiloponds
Ejection Force [5, 8]: 0.603 kN and 0.426 kN and 0.518 kN and 0.462 kN
Peak Force of Upper punch [5, 8]: 18.227 kN and 22.470 kN and 20.499 kN and 22.020 kN
Yield Pressure [5, 8]: 70.114 MPa and 92.323 MPa and 85.677 MPa and 90.406 MPa
Yield pressure Fast (300 mm/s) ([5]; fast speed 300 mm/s): 108.95 MPa (±3.30)
Yield pressure Slow (0.1 mm/s) ([5]; slow speed 0.1 mm/s): 84.63 MPa (±10.07)
Strain rate sensitivity [5]: 28.7%

COC[C@@]1(O)CC[C@@]2(C)[C@@H](CC[C@@H]3[C@@H]2CC[C@]2(C)[C@@H](C(=O)Cn4ccnc4)CC[C@@H]32)C1.O=C(O)CC(O)(CC(=O)O)C(=O)O [Compound 1 mono-citrate salt]
concentration at which rapidly gelled [3]: 5000 µg/mL
gelation in water or pH 7.4 buffer [3]: did not gel

COC[C@@]1(O)CC[C@@]2(C)[C@@H](CC[C@@H]3[C@@H]2CC[C@]2(C)[C@@H](C(=O)Cn4ccnc4)CC[C@@H]32)C1 [Compound 1 hemi-citrate salt Form I]
total loss (DVS) ([6]; 40° C.): 5.4%
water absorption from 20% to 80% RH (DVS) ([6]; 40° C.): 1.8%
water lost between 95% and 20% RH (DVS) ([6]; 40° C.): 2.2%
water lost from 20% to 0% RH (DVS) ([6]; 40° C.): 3.2%
hygroscopicity ([6]; DVS at room temperature and 40° C.): slightly hygroscopic
total loss across the entire cycle (DVS) ([6]; room temperature): 4.3%
water uptake between 20% and 80% RH (DVS) ([6]; room temperature): 1.2%
weight loss between 20% and 0% RH (DVS) ([6]; room temperature): 2.9%
weight loss between 95% and 20% RH (DVS) ([6]; room temperature): 1.5%
true density mean [4]: 1.2621 g/mL
Compact observations [5]: Ok and Chipped and Capped
Ejection Force [5]: 0.416 kN and 0.445 kN and 0.479 kN and 0.747 kN and 0.736 kN and 0.745 kN
Peak Force of Upper punch [5]: 20.607 kN and 21.683 kN and 19.936 kN and 14.028 kN and 13.909 kN and 14.571 kN
Yield Pressure [5]: 67.480 MPa and 73.595 MPa and 67.397 MPa and 83.127 MPa and 80.626 MPa and 89.401 MPa
Yield pressure Fast (300 mm/s) ([5]; fast speed 300 mm/s): 84.38 MPa (±4.52)
Yield pressure Slow (0.1 mm/s) ([5]; slow speed 0.1 mm/s): 69.49 MPa (±3.55)
Strain rate sensitivity [5]: 21.4%

COC[C@@]1(O)CC[C@@]2(C)[C@@H](CC[C@@H]3[C@@H]2CC[C@]2(C)[C@@H](C(=O)Cn4ccnc4)CC[C@@H]32)C1 [Compound 1, 3α-hydroxy-3β-methoxymethyl-21-(1′-imidazolyl)-5α-pregnan-20-one]
concentration at which rapidly gelled [3]: 1000 µg/mL
gelation in water or pH 7.4 buffer [3]: did not gel

— patent US20240190910A1, “HEMI-CITRATE SALTS OF GABA-A POSITIVE […] AND CRYSTALLINE FORM THEREOF” (priority 2021, published 2024)
